From US20110021524A1, “COMPOSITIONS AND METHODS FOR TREATING CANCERS” (IRM LLC, priority 2008, published 2011)
Counter-ions that a name gives are not always drawn. Like-named read-outs stand apart in the source and are kept apart here.

Experiments:
[1] = Pharmacokinetic parameters in mice; assay type: in vivo; conditions: for bioavailability / concentration at 7 h: Balb/c, po, 20 mg/kg; for AUC(0-inf): oral, 5 mg/kg intravenously or 20 mg/kg orally
Method: The compound plasma concentration at any given time point was determined by Liquid Chromatography/Mass Spectrometry (LC/MS/MS). Pharmacokinetic parameters were calculated by non-compartmental regression analysis using Winnonlin 4.0 software (Pharsight, Mountain View, Calif., USA).

[2] = system: Ba/F3 cells co-expressing BCR-ABL p210 and luciferase; assay: In vivo efficacy in Ba/F3.p210 xenograft model; parameters: species or system SCID beige mice
Method: Female SCID beige mice, 6-8 weeks of age (n=5 for each GNF-5-treated or vehicle control group) were injected via tail vein with 1×10^6 Ba/F3 cells co-expressing BCR-ABL p210 and luciferase. […] At days 5 and 7, bioluminescence was quantified using luciferin and an IVIS imaging system (Xenogen Corp., Alameda, Calif.).
Disease was established in SCID beige mice by inoculation of Ba/F3 cells engineered to express wild-type p210 BCR-ABL and firefly luciferase, such that disease burden could be assessed after luciferin injection by non-invasive imaging using a Xenogen IVIS™ system. […] Responses were maintained within the 100 mg/kg group (T/C=17%) at day 7; however, the initial response to the 50 mg/kg b.i.d. regime was followed by a relapse (T/C of 66%) (FIG. 3A).

[3] = system: phospho-Stat5 (downstream BCR-ABL signaling); assay: In vivo target modulation, phospho-Stat5 in bone marrow of Ba/F3.p210-bearing mice; conditions: single dose 100 mg/kg; within 7 hours
Method: Bone marrows were harvested after 3, 7 and 24 hours and were analyzed by flow cytometry for phospho-Stat5 levels using a specific phospho-Y694 antibody.

[4] = system: T315I BCR-ABL-mediated Stat5 phosphorylation; assay: T315I BCR-ABL-mediated Stat5 phosphorylation by flow cytometry; assay type: cell-based
[5] = system: wild type BCR-ABL transduced bone marrow; assay: Bone marrow transduction/transplantation model, wild type BCR-ABL; assay type: in vivo, Balb/c mice; conditions: 50 mg/kg twice daily for seven days, from day 7 after transplantation
[6] = system: T315I BCR-ABL transduced bone marrow; assay type: in vivo; conditions: b.i.d. nilotinib 50 mg/kg or GNF-5 75 mg/kg alone; seven days
[7] = system: T315I BCR-ABL transduced bone marrow; assay: Survival study, T315I BCR-ABL bone marrow transplantation model; assay type: in vivo, mice; conditions: GNF-5 75 mg/kg b.i.d. or nilotinib 50 mg/kg b.i.d.; vehicle 22 days
[8] = system: p-Stat5 in T315I BCR-ABL expressing bone marrow cells; assay: p-Stat5 positive bone marrow cells in T315I BCR-ABL transplantation model; conditions: end of efficacy study; nilotinib 50 mg/kg, GNF-5 75 mg/kg b.i.d. alone or combined
[9] = system: CML; conditions: in vivo; cited from earlier work
[10] = system: Ba/F3.p210 cells; assay: Selection for resistant Ba/F3.p210 clones; assay type: cell-based; conditions: 1 μM imatinib or 5 or 10 μM GNF-2; day nine
[11] = system: BCR-ABL transformed cells; conditions: read-out: IC50, cellular activity against BCR-ABL transformed cells; cited from earlier work
[12] = system: 40 other tyrosine kinases; conditions: cited from earlier work
[13] = system: panel of 80 diverse kinases; conditions: cited from earlier work
[14] = male, mouse, plasma, Balb/c mice, oral 20 mg/kg

## O=C(NCCO)c1cccc(-c2cc(Nc3ccc(OC(F)(F)F)cc3)ncn2)c1 [GNF-5, N-(2-hydroxyethyl)-3-(6-(4-(trifluoromethoxy)phenylamino)pyrimidin-4-yl)benzamide]
[1]; Balb/c mice, oral 20 mg/kg
  T½: 2.30 ± 0.10 h
[1]; male, mouse, plasma, Balb/c mice, 20 mg/kg oral vs 5 mg/kg intravenous, read-out: F (%)
  bioavailability: 44.8 ± 7.54%
[1]; male, mouse, plasma, Balb/c mice, oral 20 mg/kg, 7 hours, read-out: Clast
  concentration at 7 h: 636 ± 121 nM
[1]; male, mouse, plasma, oral 20 mg/kg, Balb-C mice, read-out: concentration after 7 hours
  concentration at 7 h: 630 ± 120 nM
[1]; male, mouse, plasma, oral 20 mg/kg, Balb-C mice, read-out: oral bioavailability
  bioavailability: 44.8 ± 7.5%
[1]; male, mouse, plasma, Balb/c mice, route not given, read-out: AUC_inf (hrs * nM)
  AUC(0-inf): 11.6 ± 1.96 µM·h
[1]; male, mouse, plasma, Balb/c mice, route not given, read-out: AUC_inf (min * ug/mL) (converted)
  AUC(0-inf): 4870 ng·h/mL
[1]; [14]
  Cmax: 4370 ± 1340 nM
  Tmax: 0.5 h
[1]; male, mouse, plasma, Balb/c mice, route not given, read-out: Vss
  Vd: 9.18 ± 1.82 L/kg
[1]; male, mouse, plasma, oral 20 mg/kg, Balb-C mice, read-out: terminal half-life (converted)
  half-life: 2.3 h
[1]; oral 20 mg/kg, Balb-C mice
  maximum concentration: 4.4 ± 1.3 µM
  time of maximum concentration: 0.5 h
[2]; 50 mg/kg b.i.d. oral, day 7 (relapse)
  tumor/control (T/C): 66%
[2]; 50 mg/kg b.i.d. oral, fifth day
  tumor/control (T/C): 16%
[2]; 100 mg/kg b.i.d. oral, day 7
  tumor/control (T/C): 17%
[2]; 100 mg/kg b.i.d. oral, fifth day
  tumor/control (T/C): 7%
[2]; 50 or 100 mg/kg b.i.d.
  tolerability of efficacious doses in vivo: well-tolerated
[3]
  pStat5 levels in bone marrow: Significant reduction
[4]; 10 μM nilotinib or 1 μM GNF-5 alone, or the two combined
  effect on T315I BCR-ABL-mediated Stat5 phosphorylation: no effect
[5]
  peripheral blood cell counts: normal blood cell counts
  spleen weight: normal spleen weights
[6]
  response compared to the vehicle group: no significant response
[7]
  median survival: 28 days
[8]
  percentage of p-Stat5 positive BCR-ABL expressing bone marrow cells: approx. 25%

## Cc1ccc(NC(=O)c2ccc(CN3CCN(C)CC3)cc2)cc1Nc1nccc(-c2cccnc2)n1 [Imatinib mesylate]
[9]
  response rates in CML: more than 96%

## NC(=O)c1cccc(-c2cc(Nc3ccc(OC(F)(F)F)cc3)ncn2)c1 [GNF-2, 3-[6-(4-Trifluoromethoxy-phenylamino)-pyrimidin-4-yl]-benzamide]
[10]
  emergence of resistant colonies, single agent: emergence of resistant colonies
[11]
  IC50: 140 nM
[12]
  inhibition of the activity of 40 other tyrosine kinases in cellular assays: did not inhibit
[13]
  inhibition of the biochemical activity of a panel of 80 diverse kinases: did not inhibit

## Cc1cn(-c2cc(NC(=O)c3ccc(C)c(Nc4nccc(-c5cccnc5)n4)c3)cc(C(F)(F)F)c2)cn1 [nilotinib, reference compound]
[4]
  effect on T315I BCR-ABL-mediated Stat5 phosphorylation: no effect
[6]
  response compared to the vehicle group: no significant response
[7]
  median survival: 32 days
[8]
  percentage of p-Stat5 positive BCR-ABL expressing bone marrow cells: approx. 25%
